What was measured:
Test in all cases: Fluorescence Polarization Assay
[1] = molecular target: Galectin-9 (Homo sapiens, UniProt O00182)
Method: (§1) In fluorescence polarization measurements, a fluorescent probe was excited with plane-polarized light and the degree of polarization remaining in the emitted light is measured. When the probe is bound to protein, it rotates slower than when free, and the remaining fluorescence polarization is higher. The fluorescent anisotropy value for a probe-protein mixture is the average of the value for bound and free probe. For the direct binding asaay, the data (anisotropy, A in mA vs galectin concentration, [G] in uM) were fitted to a simplified formula to obtain Kd.

[2] = molecular target: Galectin-1 (Homo sapiens, UniProt P09382); details: pH 7.2; 24 °C
Galectin-1, sequence (P09382 whole entry): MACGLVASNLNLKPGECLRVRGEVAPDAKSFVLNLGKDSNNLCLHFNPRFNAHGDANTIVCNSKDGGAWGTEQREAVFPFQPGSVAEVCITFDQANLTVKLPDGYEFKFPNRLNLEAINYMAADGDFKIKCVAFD
Method: as §1

[3] = molecular target: Galectin-7 (Homo sapiens, UniProt P47929)
Galectin-7, sequence (P47929 whole entry): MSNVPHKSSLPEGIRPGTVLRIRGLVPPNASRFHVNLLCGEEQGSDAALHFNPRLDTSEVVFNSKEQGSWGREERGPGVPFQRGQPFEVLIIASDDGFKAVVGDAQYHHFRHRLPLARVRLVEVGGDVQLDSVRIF
Method: as §1

[4] = molecular target: T1, Galectin-8 (Homo sapiens, UniProt O00214)
T1 sequence (O00214 whole entry): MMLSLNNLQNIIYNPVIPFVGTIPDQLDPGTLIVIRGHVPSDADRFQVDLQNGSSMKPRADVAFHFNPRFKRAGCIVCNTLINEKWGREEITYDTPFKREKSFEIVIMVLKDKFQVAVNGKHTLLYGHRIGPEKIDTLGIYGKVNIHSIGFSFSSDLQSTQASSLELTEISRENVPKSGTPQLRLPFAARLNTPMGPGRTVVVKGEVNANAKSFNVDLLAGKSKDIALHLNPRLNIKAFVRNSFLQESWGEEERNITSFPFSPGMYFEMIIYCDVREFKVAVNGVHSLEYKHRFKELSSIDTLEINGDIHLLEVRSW
Method: as §1

[5] = molecular target: Galectin-3 (Homo sapiens, UniProt P17931); details: pH 7.2; 24 °C
Galectin-3, sequence (P17931 whole entry): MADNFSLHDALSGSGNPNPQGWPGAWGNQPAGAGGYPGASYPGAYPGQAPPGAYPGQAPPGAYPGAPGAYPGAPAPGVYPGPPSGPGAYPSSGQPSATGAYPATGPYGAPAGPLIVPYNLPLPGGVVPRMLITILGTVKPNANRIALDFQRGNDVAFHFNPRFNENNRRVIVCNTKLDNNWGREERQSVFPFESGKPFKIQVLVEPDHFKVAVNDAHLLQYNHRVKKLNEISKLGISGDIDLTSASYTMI
Method: as §1

Galectin-9, sequence (O00182 whole entry): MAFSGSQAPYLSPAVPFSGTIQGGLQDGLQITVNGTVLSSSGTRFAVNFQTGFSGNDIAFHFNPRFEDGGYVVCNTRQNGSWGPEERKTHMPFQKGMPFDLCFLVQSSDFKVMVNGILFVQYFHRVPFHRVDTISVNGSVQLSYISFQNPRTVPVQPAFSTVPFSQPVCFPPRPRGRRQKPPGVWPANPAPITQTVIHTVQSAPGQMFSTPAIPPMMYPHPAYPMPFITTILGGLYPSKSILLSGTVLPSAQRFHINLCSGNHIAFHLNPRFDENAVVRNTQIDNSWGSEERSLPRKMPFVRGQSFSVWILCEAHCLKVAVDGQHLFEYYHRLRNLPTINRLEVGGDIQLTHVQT

Compound	Kd [1] [µM]	Kd [2] [µM]	Kd [3] [µM]	Kd [4] [µM]	Kd [5] [µM]
CO[C@@H]1O[C@H](CO)[C@@H](O[C@@H]2O[C@H](CO)[C@H](O)[C@H](O)[C@H]2O)[C@H](O)[C@H]1NC(C)=O [N-[(2R,3R,4R,5S,6R)-4-hydroxy-6-(hydroxymethyl)-2-methoxy-5-{[(2S,3R,4S,5R,6R)-3,4,5-trihydroxy-6-(hydroxymethyl)oxan-2-yl]oxy}oxan-3-yl]acetamide]	500	70	490	700	67
CO[C@@H]1O[C@H](CO)[C@@H](O[C@@H]2O[C@H](CO)[C@H](O)[C@H](NC(=S)Nc3ccccc3)[C@H]2O)[C@H](O)[C@H]1NC(C)=O [N-[(2R,3R,4R,5S,6R)-5-{[(2S,3R,4S,5R,6R)-3,5-dihydroxy-6-(hydroxymethyl)-4-[(phenylcarbamothioyl)amino]oxan-2-yl]oxy}-4-hydroxy-6-(hydroxymethyl)-2-methoxyoxan-3-yl]acetamide]	100	45	110	> 3000	40
CO[C@@H]1O[C@H](CO)[C@@H](O[C@@H]2O[C@H](CO)[C@H](O)[C@H](NC(=S)NCc3ccccc3)[C@H]2O)[C@H](O)[C@H]1NC(C)=O [N-[(2R,3R,4R,5S,6R)-5-{[(2S,3R,4S,5R,6R)-4-[(benzylcarbamothioyl)amino]-3,5-dihydroxy-6-(hydroxymethyl)oxan-2-yl]oxy}-4-hydroxy-6-(hydroxymethyl)-2-methoxyoxan-3-yl]acetamide]	–	35	–	–	15
CO[C@@H]1O[C@H](CO)[C@@H](O[C@@H]2O[C@H](CO)[C@H](O)[C@H](NC(=S)NCc3cccnc3)[C@H]2O)[C@H](O)[C@H]1NC(C)=O [N-[(2R,3R,4R,5S,6R)-5-{[(2S,3R,4S,5R,6R)-3,5-dihydroxy-6-(hydroxymethyl)-4-{[(pyridin-3-ylmethyl)carbamothioyl]amino}oxan-2-yl]oxy}-4-hydroxy-6-(hydroxymethyl)-2-methoxyoxan-3-yl]acetamide]	47	43	23	–	35
C=CCNC(=S)N[C@H]1[C@@H](O)[C@@H](CO)O[C@@H](O[C@H]2[C@H](O)[C@@H](NC(C)=O)[C@H](OC)O[C@@H]2CO)[C@@H]1O [N-[(2R,3R,4R,5S,6R)-5-{[(2S,3R,4S,5R,6R)-3,5-dihydroxy-6-(hydroxymethyl)-4-[(prop-2-en-1-ylcarbamothioyl)amino]oxan-2-yl]oxy}-4-hydroxy-6-(hydroxymethyl)-2-methoxyoxan-3-yl]acetamide]	97	34	100	> 3000	52
CO[C@@H]1O[C@H](CO)[C@@H](O[C@@H]2O[C@H](CO)[C@H](O)[C@H](NC(=S)NCCCO)[C@H]2O)[C@H](O)[C@H]1NC(C)=O [N-[(2R,3R,4R,5S,6R)-5-{[(2S,3R,4S,5R,6R)-3,5-dihydroxy-6-(hydroxymethyl)-4-{[(3-hydroxypropyl)carbamothioyl]amino}oxan-2-yl]oxy}-4-hydroxy-6-(hydroxymethyl)-2-methoxyoxan-3-yl]acetamide]	92	23	150	> 3000	65
CCCCNC(=S)N[C@H]1[C@@H](O)[C@@H](CO)O[C@@H](O[C@H]2[C@H](O)[C@@H](NC(C)=O)[C@H](OC)O[C@@H]2CO)[C@@H]1O [N-[(2R,3R,4R,5S,6R)-5-{[(2S,3R,4S,5R,6R)-4-[(butylcarbamothioyl)amino]-3,5-dihydroxy-6-(hydroxymethyl)oxan-2-yl]oxy}-4-hydroxy-6-(hydroxymethyl)-2-methoxyoxan-3-yl]acetamide]	69	23	130	> 3000	23
CO[C@@H]1O[C@H](CO)[C@@H](O[C@@H]2O[C@H](CO)[C@H](O)[C@H](NC(=S)N[C@H]3[C@@H](O)[C@@H](CO)O[C@@H](O[C@H]4[C@H](O)[C@@H](NC(C)=O)[C@H](OC)O[C@@H]4CO)[C@@H]3O)[C@H]2O)[C@H](O)[C@H]1NC(C)=O [N-[(2R,3R,4R,5S,6R)-5-{[(2S,3R,4S,5R,6R)-4-({[(2S,3R,4S,5R,6R)-2-{[(2R,3S,4R,5R,6R)-5-acetamido-4-hydroxy-2-(hydroxymethyl)-6-methoxyoxan-3-yl]oxy}-3,5-dihydroxy-6-(hydroxymethyl)oxan-4-yl]carbamothioyl}amino)-3,5-dihydroxy-6-(hydroxymethyl)oxan-2-yl]oxy}-4-hydroxy-6-(hydroxymethyl)-2-methoxyoxan-3-yl]acetamide]	240	58	170	> 3000	160
CO[C@@H]1O[C@H](CO)[C@@H](O[C@@H]2O[C@H](CO)[C@H](O)[C@H](NC(=S)N3CCOCC3)[C@H]2O)[C@H](O)[C@H]1NC(C)=O [N-[(2R,3R,4R,5S,6R)-5-{[(2S,3R,4S,5R,6R)-3,5-dihydroxy-6-(hydroxymethyl)-4-[(morpholin-4-ylmethanethioyl)amino]oxan-2-yl]oxy}-4-hydroxy-6-(hydroxymethyl)-2-methoxyoxan-3-yl]acetamide]	–	160	–	–	69
CO[C@@H]1O[C@H](CO)[C@@H](O[C@@H]2O[C@H](CO)[C@H](O)[C@H](NC(N)=S)[C@H]2O)[C@H](O)[C@H]1NC(C)=O [N-[(2R,3R,4R,5S,6R)-5-{[(2S,3R,4S,5R,6R)-4-(carbamothioylamino)-3,5-dihydroxy-6-(hydroxymethyl)oxan-2-yl]oxy}-4-hydroxy-6-(hydroxymethyl)-2-methoxyoxan-3-yl]acetamide]	76	43	170	> 3000	65
CO[C@@H]1O[C@H](CO)[C@@H](O[C@@H]2O[C@H](CO)[C@H](O)[C@H](NC(=S)NCCO)[C@H]2O)[C@H](O)[C@H]1NC(C)=O [N-[(2R,3R,4R,5S,6R)-5-{[(2S,3R,4S,5R,6R)-3,5-dihydroxy-4-{[(2-hydroxyethyl)carbamothioyl]amino}-6-(hydroxymethyl)oxan-2-yl]oxy}-4-hydroxy-6-(hydroxymethyl)-2-methoxyoxan-3-yl]acetamide]	120	49	130	500	74
CO[C@@H]1O[C@H](CO)[C@@H](O[C@@H]2O[C@H](CO)[C@H](O)[C@H](NC(=S)NC3CCCCC3)[C@H]2O)[C@H](O)[C@H]1NC(C)=O [N-[(2R,3R,4R,5S,6R)-5-{[(2S,3R,4S,5R,6R)-4-[(cyclohexylcarbamothioyl)amino]-3,5-dihydroxy-6-(hydroxymethyl)oxan-2-yl]oxy}-4-hydroxy-6-(hydroxymethyl)-2-methoxyoxan-3-yl]acetamide]	80	40	24	650	57
CCN(CC)C(=S)N[C@H]1[C@@H](O)[C@@H](CO)O[C@@H](O[C@H]2[C@H](O)[C@@H](NC(C)=O)[C@H](OC)O[C@@H]2CO)[C@@H]1O [N-[(2R,3R,4R,5S,6R)-5-{[(2S,3R,4S,5R,6R)-4-[(diethylcarbamothioyl)amino]-3,5-dihydroxy-6-(hydroxymethyl)oxan-2-yl]oxy}-4-hydroxy-6-(hydroxymethyl)-2-methoxyoxan-3-yl]acetamide]	280	46	180	> 3000	43
CNC(=S)N[C@H]1[C@@H](O)[C@@H](CO)O[C@@H](O[C@H]2[C@H](O)[C@@H](NC(C)=O)[C@H](OC)O[C@@H]2CO)[C@@H]1O [N-[(2R,3R,4R,5S,6R)-5-{[(2S,3R,4S,5R,6R)-3,5-dihydroxy-6-(hydroxymethyl)-4-[(methylcarbamothioyl)amino]oxan-2-yl]oxy}-4-hydroxy-6-(hydroxymethyl)-2-methoxyoxan-3-yl]acetamide]	110	49	65	> 3000	38
